Structures can show the parent of a compound that is named as a salt.
target: T1, ACC1 from rat liver (Rattus norvegicus, UniProt P11497); assay: Direct inhibition of ACC1 activity (14C-bicarbonate incorporation); assay type: biochemical; details: ACC1 from rat liver
T1 construct: The livers (for ACC1 preparation) or skeletal muscle tissue (for ACC2 preparation) are removed; from tissue; host or cells: liver of male CD rats (fasted, then fed a high sucrose diet)
Procedure: [1] Preparation of ACC1 and ACC2.
Male CD rats weighing 150-200 g are fasted for 2 days and then fed a high sucrose diet (AIN-76A rodent diet; Cat # D10001, Research Diets Inc., New Brunswick, N.J.), for 3 days at which time they are sacrificed by CO2 asphyxiation. The livers (for ACC1 preparation) or skeletal muscle tissue (for ACC2 preparation) are removed, rinsed in ice-cold phosphate-buffered saline (PBS), and homogenized in 5 volumes of homogenization buffer (50 mM potassium phosphate, pH 7.5, 10 mM EDTA, 10 mM 2-mercaptoethanol, 2 mM benzamidine, 0.2 mM phenylmethylsulfonylfluoride (PMSF), 5 mg/L each leupeptin, aprotinin, and antitrypsin) in a Waring® blender for 1 minute at 4° C. All subsequent operations are carried out at 4° C. The homogenate is made 3% with respect to polyethylene glycol (PEG) by the addition of 50% PEG solution and centrifuged at 20,000×g for 15 minutes. The resulting supernatant is adjusted to 5% PEG with the addition of 50% PEG solution and stirred for 5 minutes. The pellet (contains ACC activity) is collected by centrifugation at 20,000×g for 20 minutes, rinsed with Ice-cold doubly distilled water to remove excess PEG and re-suspended in one-fourth the original homogenate volume with homogenization buffer. Ammonium sulfate (200 g/liter) is slowly added with stirring. After 45 minutes the enzyme is collected by centrifugation for 30 minutes at 20,000×g, re-suspended in 10 ml of 50 mM HEPES, pH7.5, 0.1 mM DTT, 1.0 mM EDTA, and 10% glycerol and desalted on a Sephadex™ G-25 column (2.5 cm-x 50 cm) (Pharmacia, Piscataway N.J. now GE Healthcare) […] equilibrated with the same buffer. The desalted enzyme preparation is stored in aliquots at −70° C. Immediately prior to use, frozen ACC1 or ACC2 aliquots are thawed, diluted to 500 μg/ml in buffer containing 50 mM HEPES, pH7.5, 1.0 mM MgCl2, 10 mM tripotassium citrate, 2.0 mM dithiothreitol (DTT), and 0.75 mg/ml fatty acid-free bovine serum albumin (BSA) and pre-incubated at 37° C. for 30 minutes.
[2] Measurement of ACC inhibition. The procedures for measuring ACC1 inhibition and ACC2 inhibition are identical except for the source of the isozyme. For measurement of ACC activity and assessment of ACC inhibition, test compounds are dissolved in dimethylsulfoxide (DMSO) and 1 μL aliquots are placed in 0.5 ml polypropylene tubes. Control tubes contain 1 μL of DMSO alone. Tubes are incubated at 37° C. in a constant temperature water bath. […] The reaction is then initiated by the addition of 10 μL of preincubated ACC fraction prepared as described above. After 7 minutes the reaction is terminated by the addition of 50 μL of 6N HCl and a 150 μL aliquot of the reaction mixture is transferred to glass scintillation vials and evaporated to dryness at 90° C. for at least 1 hour. The dried vials are then cooled, 0.5 ml of water and 5.5 ml of Ready Safe liquid scintillation fluid (Beckman Coulter Inc., Fullerton, Calif.) are added, and the radioactivity is determined using a liquid scintillation counter. Tubes that received HCl before ACC served as blanks.

Row | IC50 [nM] | Molecule
1 | 28.8 | COc1cccc2c1C(=O)CC1(CCN(C(=O)c3ccc4[nH]c5c(c4c3)CCNC5=O)CC1)O2 [Ex. K2, 5-methoxy-1′-[(1-oxo-2,3,4,9-tetrahydro-1H-beta-carbolin-6-yl)carbonyl]spiro[chromene-2,4′-piperidin]-4(3H)-one]
2 | 891 | O=C(O)c1ccc2c(c1)C(=O)CC1(CCN(C(=O)c3cccc(-c4cc[nH]n4)c3)CC1)O2 [Ex. N1, 4-oxo-1′-[3-(1H-pyrazol-3-yl)benzoyl]-3,4-dihydrospiro[chromene-2,4′-piperidine]-6-carboxylic acid trifluoroacetic acid salt]
3 | 1140 | CCc1nc2cc(C(=O)N3CCC4(CC3)CC(=O)c3c(OC)cccc3O4)ccc2n1-c1cccc(OC)c1 [Ex. L31, 1′-{[2-ethyl-1-(3-methoxyphenyl)-1H-benzimidazol-5-yl]carbonyl}-5-methoxyspiro[chromene-2,4′-piperidin]-4(3H)-one]
4 | 151 | Cc1cc2c(cc1C)C(=O)CC1(CCN(C(=O)c3ccc4[nH]nnc4c3)CC1)O2 [Ex. L37, 1′-(1H-1,2,3-benzotriazol-5-ylcarbonyl)-6,7-dimethylspiro[chromene-2,4′-piperidin]-4(3H)-one]
5 | 63.5 | Cc1cc2c(cc1C)C(=O)CC1(CCN(C(=O)c3ccc4[nH]c(-c5ccccn5)nc4c3)CC1)O2 [Ex. L26, 6,7-dimethyl-1′-[(2-pyridin-2-yl-1H-benzimidazol-5-yl)carbonyl]spiro[chromene-2,4′-piperidin]-4(3H)-one trifluoroacetic acid salt]
6 | 362 | Cc1cc2c(cc1C)C(=O)CC1(CCN(C(=O)c3ccc4[nH]nnc4c3)CC1)O2 [Ex. L39, 1′-(1H-1,2,3-benzotriazol-5-ylcarbonyl)-6,7-dimethylspiro[chromene-2,4′-piperidin]-4(3H)-one trifluoroacetic acid salt]
7 | 43.8 | Cc1cc2c(cc1C)C(=O)CC1(CCN(C(=O)c3ccc4[nH]cc(Cl)c4c3)CC1)O2 [Ex. L9, 1′-[(3-chloro-1H-indol-5-yl)carbonyl]-6,7-dimethylspiro[chromene-2,4′-piperidin]-4(3H)-one]
8 | 369 | Cc1cc2c(cc1Cl)C(=O)CC1(CCN(C(=O)c3ccc4ocnc4c3)CC1)O2 [Ex. L46, 1′-(1,3-benzoxazol-5-ylcarbonyl)-6-chloro-7-methylspiro[chromene-2,4′-piperidin]-4(3H)-one]
9 | < 3000 | Cc1cc2c(cc1C)C(=O)CC1(CCN(C(=O)c3ccc4c(c3)CCC(=O)N4)CC1)O2 [L44, 6,7-dimethyl-1′-[(2-oxo-1,2,3,4-tetrahydroquinolin-6-yl)carbonyl]spiro[chromene-2,4′-piperidin]-4(3H)-one]
10 | 113 | COc1cccc2c1C(=O)CC1(CCN(C(=O)c3ccc4[nH]c(C)c(C)c4c3)CC1)O2 [Ex. L11, 1′-[(2,3-dimethyl-1H-indol-5-yl)carbonyl]-5-methoxyspiro[chromene-2,4′-piperidin]-4(3H)-one]

The next lines start with the molecule.

Row | Molecule | IC50 [nM]
11 | O=C1CC2(CCN(C(=O)c3cccc4cn[nH]c34)CC2)Oc2cc(-c3ccccc3)ccc21 [Ex. H18, 1′-(1H-indazol-7-ylcarbonyl)-7-phenylspiro[chromene-2,4′-piperidin]-4(3H)-one] | 2210
12 | COc1cc2c(c(OC)c1OC)C(=O)CC1(CCN(C(=O)c3cccc4cn[nH]c34)CC1)O2 [Ex. H11, 1′-(1H-indazol-7-ylcarbonyl)-5,6,7-trimethoxyspiro[chromene-2,4′-piperidin]-4(3H)-one] | 756
13 | 6-chloro-1′-[(7-chloro-1H-indazol-5-yl)carbonyl]spiro[chromene-2,4′-piperidin]-4(3H)-one [Ex. B8] | 166
14 | O=C1CC2(CCN(C(=O)c3cc(Cl)c4[nH]ncc4c3)CC2)Oc2cc(Cl)c(F)cc21 [Ex. B10, 7-chloro-1′-[(7-chloro-1H-indazol-5-yl)carbonyl]-6-fluorospiro[chromene-2,4′-piperidin]-4(3H)-one] | 209
15 | COc1ccc2c(c1)C(=O)CC1(CCN(C(=O)c3cccc4cn[nH]c34)CC1)O2 [Ex. H7] | 562
16 | Cc1cc2c(cc1C)C(=O)CC1(CCN(C(=O)c3cccc4cc[nH]c34)CC1)O2 [Ex. L1, 1′-(1H-indol-7-ylcarbonyl)-6,7-dimethylspiro[chromene-2,4′-piperidin]-4(3H)-one trifluoroacetic acid salt] | 190
17 | Cc1cc2c(cc1C)C(=O)CC1(CCN(C(=O)c3cc(C)c4[nH]ncc4c3)CC1)O2 [Ex. A2, 6,7-dimethyl-1′-[(7-methyl-1H-indazol-5-yl)carbonyl]spiro-[chromene-2,4′-piperidin]-4(3H)-one trifluoroacetic acid salt] | 30.1
18 | CC(C)c1ccc2c(c1)C(=O)CC1(CCN(C(=O)c3cccc4cn[nH]c34)CC1)O2 [Ex. H10, 1′-(1H-indazol-7-ylcarbonyl)-6-isopropylspiro[chromene-2,4-piperidin]-4(3H)-one] | 693
19 | O=C1CC2(CCN(C(=O)c3cccc4cn[nH]c34)CC2)Oc2c(Cl)cc(Cl)cc21 [Ex. H22, 6,8-dichloro-1′-(1H-indazol-7-ylcarbonyl)spiro[chromene-2,4′-piperidin]-4(3H)-one] | 2660
20 | Cc1cc2c(c(C)c1Cl)C(=O)CC1(CCN(C(=O)c3cc(C)c4[nH]ncc4c3)CC1)O2 [Ex. A18, 6-chloro-5,7-dimethyl-1′-[(7-methyl-1H-indazol-5-yl)carbonyl]spiro[chromene-2,4′-piperidin]-4(3H)-one] | 72

same assay, conditions: Table of Examples M1-M36

Row | IC50 [nM] | Molecule
21 | 73.6 | Cc1cc2c(cc1C)C(=O)CC1(CCN(C(=O)c3cccc(-c4cc[nH]n4)c3)CC1)O2 [Ex. M2, 6,7-dimethyl-1′-[3-(1H-pyrazol-3-yl)benzoyl]spiro[chromene-2,4′-piperidin]-4(3H)-one]
22 | 434 | CS(=O)(=O)c1ccc2c(c1)C(=O)CC1(CCN(C(=O)c3cccc(-c4cc[nH]n4)c3)CC1)O2 [M20, 6-(methylsulfonyl)-1′-[3-(1H-pyrazol-3-yl)benzoyl]spiro[chromene-2,4′-piperidin]-4(3H)-one]
23 | 179 | O=C1CC2(CCN(C(=O)c3cccc(-c4cc[nH]n4)c3)CC2)Oc2ccc(C(=O)N3CCCC3)cc21 [Ex. M9, 1′-[3-(1H-pyrazol-3-yl)benzoyl]-6-(pyrrolidin-1-ylcarbonyl)spiro[chromene-2,4′-piperidin]-4(3H)-one]
24 | 481 | COc1ccc2c(c1)OC1(CCN(C(=O)c3cccc(-c4cc[nH]n4)c3)CC1)CC2=O [Ex. M25, 7-methoxy-1′-[3-(1H-pyrazol-3-yl)benzoyl]spiro[chromene-2,4′-piperidin]-4(3H)-one]

same assay, conditions: Table of Examples P1-P15

Row | IC50 [nM] | Molecule
25 | < 3000 | Cc1cc2c(cc1C)C(=O)CC1(CCN(C(=O)c3cc(-c4cc[nH]n4)ccc3F)CC1)O2 [Ex. P4, 1′-[2-fluoro-5-(1H-pyrazol-3-yl)benzoyl]-6,7-dimethylspiro[chromene-2,4′-piperidin]-4(3H)-one trifluoroacetic acid salt]
26 | < 3000 | Cc1cc2c(cc1C)C(=O)CC1(CCN(C(=O)c3cc(-c4cc[nH]n4)ccc3Cl)CC1)O2 [Ex. P5, 1′-[2-chloro-5-(1H-pyrazol-3-yl)benzoyl]-6,7-dimethylspiro[chromene-2,4′-piperidin]-4(3H)-one trifluoroacetic acid salt]
27 | 1060 | CCOc1ccc(-c2cc[nH]n2)cc1C(=O)N1CCC2(CC1)CC(=O)c1cc(Cl)c(C)cc1O2 [Ex. P9, 6-chloro-1′-[2-ethoxy-5-(1H-pyrazol-3-yl)benzoyl]-7-methylspiro[chromene-2,4′-piperidin]-4(3H)-one]
28 | < 3000 | Cc1nc(-c2cccc(C(=O)N3CCC4(CC3)CC(=O)c3cc(C)c(C)cc3O4)c2)no1 [Ex. P14, 6,7-Dimethyl-1′-[3-(5-methyl-1,2,4-oxadiazol-3-yl)benzoyl]spiro[chromene-2,4′-piperidin]-4(3H)-one]
